Results published in patent US20240190890A1, “MK2 INHIBITORS AND USES THEREOF” (Bristol-Myers Squibb Company, priority 2022, published 2024).

What follows are compounds tested against p38a activated, mitogen-activated protein kinase-activated protein kinase 2 (MAPKAP-K2 or MK2) enzyme (Homo sapiens (Human), UniProt P49137) (assay: MK2 Omnia continuous-read kinase assay for compound potency). Settings: [MK-2]=0.4 nM, [ATP]=10 μM, [ST3-Sox]=10 μM; room temperature.
Format: biochemical
Source text: Mitogen-Activated Protein Kinase-Activated Protein Kinase 2 Omnia® Assay for Compound Potency Assessment:
The protocol below describes a continuous-read kinase assay optimized to measure potency of compounds against p38a activated, mitogen-activated protein kinase-activated protein kinase 2 (MAPKAP-K2 or MK2) enzyme. Further details of this assay are described by Life Technologies, Carlsbad, CA on their website at the following URL: http://tools.lifetechnologies.com/content/sfs/manuals/omnia_kinase_assay_man.pdf. • [Reagent] used: • [MK-2]=0.4 nM, • [ATP]=10 μM and • [ST3-Sox]=10 μM (ATP^appKM=10 μM)
Briefly, 10× stock solutions of MK2 (PV3317, from Life Technologies), 1.13X ATP (AS001A), and Sox conjugated peptide substrate, S/T3-Sox, (KZN1031) were prepared in 1× kinase reaction buffer consisting of 20 mM Tris, pH 7.5, 5 mM MgCl2, 1 mM EGTA, 5 mM β-glycerophosphate, 5% glycerol (10× stock, KB001A) and 0.2 mM DTT (DS001A). Enzyme solution (5 μL) was added to each of DMSO ([…]) or serially diluted test compounds prepared in DMSO in a Corning (#3574) 384-well, white, non-binding surface microtiter plate (Corning, NY). Kinase reactions were started with the addition of 45 μL of the ATP-peptide substrate S/T3-Sox mix and monitored every 71 seconds for 120 minutes at λex360/λem485 in a Synergy H4 plate reader from BioTek (Winooski, VT) at room temperature.
Background signals from the no enzyme control wells were subtracted from all progress curves. The initial linear portions of the net progress curves were fit according to a linear equation to yield the slope and percentage of inhibition (% inhibition) at each compound concentration. The net progress curves obtained during the first two hours of reactions were also fit according to an ascending single-exponential equation (Eq. 1) to yield kobs values at each compound concentration. Plots of % Inhibition versus inhibitor concentrations were fit according to a dose-response equation (Eq. 2) to generate IC50 and Hill slope values while plots of kobs versus inhibitor concentration were fit according to Equation 3 (Eq. 3) to generate apparent kinact/K1 values using the GraphPad PRISM software (Version 6.00; GraphPad San Diego, CA).
where F is the fluorescence intensity from the plate reader, V0 is a constant reflecting the relationship between the instrument readout and product concentration, t is time, e is Euler's number, and kobs is the observed inactivation rate constant.
where % Inhibition is percentage of inhibition, IC50 is half maximal inhibitory concentration, [I] is the inhibitor concentration, and n is the Hill slope.
where kobs is the observed inactivation rate constant, kinact is the apparent inactivation rate constant, K1 is the apparent inhibition constant, and [I] is the inhibitor concentration. […] Potency results for the compounds tested are shown in Table 4 in the column entitled “MK2 IC50.”

p38a activated, mitogen-activated protein kinase-activated protein kinase 2 (MAPKAP-K2 or MK2) enzyme, sequence (P49137 whole entry): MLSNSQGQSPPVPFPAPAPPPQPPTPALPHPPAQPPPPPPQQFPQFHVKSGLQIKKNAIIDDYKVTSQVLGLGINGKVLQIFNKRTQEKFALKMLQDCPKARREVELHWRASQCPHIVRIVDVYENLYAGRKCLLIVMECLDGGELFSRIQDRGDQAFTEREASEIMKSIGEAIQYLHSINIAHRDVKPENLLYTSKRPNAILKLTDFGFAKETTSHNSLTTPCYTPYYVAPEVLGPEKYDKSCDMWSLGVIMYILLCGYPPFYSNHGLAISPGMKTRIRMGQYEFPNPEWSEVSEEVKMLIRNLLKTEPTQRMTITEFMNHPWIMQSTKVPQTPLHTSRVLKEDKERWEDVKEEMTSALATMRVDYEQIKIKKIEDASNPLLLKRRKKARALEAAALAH

| Compound | IC50 [µM] |
| --- | --- |
| C=C(CN(C)C)c1cc(-c2ccc3c(ccc4sc5c(c43)NC[C@@H](C)NC5=O)n2)ccn1 [Example I-117, (R)-3-(2-(3-(dimethylamino)prop-1-en-2-yl)pyridin-4-yl)-10-methyl-9,10,11,12-tetrahydro-8H-[1,4]diazepino[5′,6′:4,5]thieno[3,2-f]quinolin-8-one] | 0.006 |
| C[C@@H]1CNc2c(sc3ccc4nc(-c5cc(Cl)nc(C6=CCN(C)CC6)c5)ccc4c23)C(=O)N1 [Example I-100, (R)-3-(6-chloro-1′-methyl-1′,2′,3′,6′-tetrahydro-[2,4′-bipyridin]-4-yl)-10-methyl-9,10,11,12-tetrahydro-8H-[1,4]diazepino[5′,6′:4,5]thieno[3,2-f]quinolin-8-one] | 0.062 |
| C#Cc1nccc(-c2ccc3c(ccc4sc5c(c43)NC[C@@H](C)NC5=O)n2)n1 [Example I-40, (R)-3-(2-ethynylpyrimidin-4-yl)-10-methyl-9,10,11,12-tetrahydro-8H-[1,4]diazepino[5′,6′:4,5]thieno[3,2-f]quinolin-8-one] | 0.025 |
| C#Cc1cc(-c2ccc3c(ccc4sc5c(c43)NC[C@@H](C)NC5=O)n2)cc(C2CCN(C)CC2)n1 [Example I-107, (R)-3-(2-ethynyl-6-(1-methylpiperidin-4-yl)pyridin-4-yl)-10-methyl-9,10,11,12-tetrahydro-8H-[1,4]diazepino[5′,6′:4,5]thieno[3,2-f]quinolin-8-one] | 0.022 |
| C#Cc1cc(-c2ccc3c(ccc4sc5c(c43)NC[C@@H](C)NC5=O)n2)cc(CN2CCOCC2)n1 [Example I-169, (R)-3-(2-ethynyl-6-(morpholinomethyl)pyridin-4-yl)-10-methyl-9,10,11,12-tetrahydro-8H-[1,4]diazepino[5′,6′:4,5]thieno[3,2-f]quinolin-8-one] | 0.039 |
| C=Cc1cc(-c2ccc3c(ccc4sc5c(c43)NC[C@@H](C)NC5=O)n2)cc(N2CCC(OC)CC2)n1 [Example I-158, (R)-3-(2-(4-methoxypiperidin-1-yl)-6-vinylpyridin-4-yl)-10-methyl-9,10,11,12-tetrahydro-8H-[1,4]diazepino[5′,6′:4,5]thieno[3,2-f]quinolin-8-one] | 0.038 |
| C[C@@H]1CNc2c(sc3ccc4nc(-c5cc(Cl)nc(COC6CCNCC6)n5)ccc4c23)C(=O)N1 [Example I-14, (R)-3-(6-chloro-2-((piperidin-4-yloxy)methyl)pyrimidin-4-yl)-10-methyl-9,10,11,12-tetrahydro-8H-[1,4]diazepino[5′,6′:4,5]thieno[3,2-f]quinolin-8-one] | 0.012 |
| C=Cc1cc(-c2ccc3c(ccc4sc5c(c43)NC[C@@H](C)NC5=O)n2)c(OC(F)(F)F)cn1 [Example I-245, (R)-10-methyl-3-(5-(trifluoromethoxy)-2-vinylpyridin-4-yl)-9,10,11,12-tetrahydro-8H-[1,4]diazepino[5′,6′:4,5]thieno[3,2-f]quinolin-8-one] | 0.074 |
| C=C(CN1CCOCC1)c1cc(-c2ccc3c(ccc4sc5c(c43)NC[C@@H](C)NC5=O)n2)c(OC)nn1 [Example I-138, (R)-3-(3-methoxy-6-(3-morpholinoprop-1-en-2-yl)pyridazin-4-yl)-10-methyl-9,10,11,12-tetrahydro-8H-[1,4]diazepino[5′,6′:4,5]thieno[3,2-f]quinolin-8-one] | 0.096 |
| C=Cc1cc(C(F)(F)F)n(-c2ccc3c(ccc4sc5c(c43)NC[C@@H](C)NC5=O)n2)n1 [Example I-257, (R)-10-methyl-3-(5-(trifluoromethyl)-3-vinyl-1H-pyrazol-1-yl)-9,10,11,12-tetrahydro-8H-[1,4]diazepino[5′,6′:4,5]thieno[3,2-f]quinolin-8-one] | 1 |
| (R)-3-(2-chloro-5-(ethoxymethyl)pyrimidin-4-yl)-10-methyl-9,10,11,12-tetrahydro-8H-[1,4]diazepino[5′,6′:4,5]thieno[3,2-f]quinolin- [Example I-3] | 0.107 |
| C=Cc1nn(C)cc1-c1ccc2c(ccc3sc4c(c32)NC[C@@H](C)NC4=O)n1 [Example I-230, (R)-10-methyl-3-(1-methyl-3-vinyl-1H-pyrazol-4-yl)-9,10,11,12-tetrahydro-8H-[1,4]diazepino[5′,6′:4,5]thieno[3,2-f]quinolin-8-one] | 0.044 |
| C=Cc1cc(-c2ccc3c(ccc4sc5c(c43)NC[C@@H](C)NC5=O)n2)c(N(C)C)nn1 [Example I-129, (R)-3-(3-(dimethylamino)-6-vinylpyridazin-4-yl)-10-methyl-9,10,11,12-tetrahydro-8H-[1,4]diazepino[5′,6′:4,5]thieno[3,2-f]quinolin-8-one] | 0.106 |
| C=Cc1cc(-c2ccc3c(ccc4sc5c(c43)NC[C@@H](C)NC5=O)n2)c(C)c(C)n1 [Example I-194, (R)-3-(2,3-dimethyl-6-vinylpyridin-4-yl)-10-methyl-9,10,11,12-tetrahydro-8H-[1,4]diazepino[5′,6′:4,5]thieno[3,2-f]quinolin-8-one] | 0.005 |
| C[C@@H]1CNc2c(sc3ccc4nc(-c5nc(Cl)cc(N6CCN(C)CC6)n5)ccc4c23)C(=O)N1 [Example I-43, (R)-3-(4-chloro-6-(4-methylpiperazin-1-yl)pyrimidin-2-yl)-10-methyl-9,10,11,12-tetrahydro-8H-[1,4]diazepino[5′,6′:4,5]thieno[3,2-f]quinolin-8-one] | 0.44 |
| C=Cc1cncc(-c2ccc3c(ccc4sc5c(c43)NC[C@@H](C)NC5=O)n2)n1 [Example I-163, (R)-10-methyl-3-(6-vinylpyrazin-2-yl)-9,10,11,12-tetrahydro-8H-[1,4]diazepino[5′,6′:4,5]thieno[3,2-f]quinolin-8-one] | 0.109 |
| C[C@@H]1CNc2c(sc3ccc4nc(-n5ccnc5C#N)ccc4c23)C(=O)N1 [Example I-246, (R)-1-(10-methyl-8-oxo-9,10,11,12-tetrahydro-8H-[1,4]diazepino[5′,6′:4,5]thieno[3,2-f]quinolin-3-yl)-1H-imidazole-2-carbonitrile] | 0.016 |
| C#Cc1nccc(-c2ccc3c(ccc4sc5c(c43)NC[C@@H](C)NC5=O)n2)c1C [Example I-220, (R)-3-(2-ethynyl-3-methylpyridin-4-yl)-10-methyl-9,10,11,12-tetrahydro-8H-[1,4]diazepino[5′,6′:4,5]thieno[3,2-f]quinolin-8-one] | 0.177 |
| C=Cc1ncc(COCC)c(-c2ccc3c(ccc4sc5c(c43)NC[C@@H](C)NC5=O)n2)n1 [Example I-5, (R)-3-(5-(ethoxymethyl)-2-vinylpyrimidin-4-yl)-10-methyl-9,10,11,12-tetrahydro-8H-[1,4]diazepino[5′,6′:4,5]thieno[3,2-f]quinolin-8-one] | 0.007 |
| C=Cc1cc(-c2ccc3c(ccc4sc5c(c43)NC[C@@H](CF)NC5=O)n2)c(C)cn1 [Example I-254, (S)-10-(fluoromethyl)-3-(5-methyl-2-vinylpyridin-4-yl)-9,10,11,12-tetrahydro-8H-[1,4]diazepino[5′,6′:4,5]thieno[3,2-f]quinolin-8-one] | 0.027 |
| C=Cc1nc(C2CC2)n(-c2ccc3c(ccc4sc5c(c43)NC[C@@H](C)NC5=O)n2)n1 [Example I-248, (R)-3-(5-cyclopropyl-3-vinyl-1H-1,2,4-triazol-1-yl)-10-methyl-9,10,11,12-tetrahydro-8H-[1,4]diazepino[5′,6′:4,5]thieno[3,2-f]quinolin-8-one] | 0.303 |
| C=Cc1cc(-c2ccc3c(ccc4sc5c(c43)NC[C@@H](C)NC5=O)n2)cc(N2CCC(COC)CC2)n1 [Example I-240, (R)-3-(2-(4-(methoxymethyl)piperidin-1-yl)-6-vinylpyridin-4-yl)-10-methyl-9,10,11,12-tetrahydro-8H-[1,4]diazepino[5′,6′:4,5]thieno[3,2-f]quinolin-8-one] | 0.107 |
| C#Cc1cc(-c2ccc3c(ccc4sc5c(c43)NC[C@@H](C)NC5=O)n2)cc(N2CCN(C)CC2)n1 [Example I-95, (R)-3-(2-ethynyl-6-(4-methylpiperazin-1-yl)pyridin-4-yl)-10-methyl-9,10,11,12-tetrahydro-8H-[1,4]diazepino[5′,6′:4,5]thieno[3,2-f]quinolin-8-one] | 0.042 |
